Consider one compound from PubChem BioAssay AID1378 (University of Pittsburgh Molecular Library Screening Center, 2008).

The source made the active and inactive calls. The rule behind the calls is not given here. Where only a bound is given, the exact number is not on record here.

The test has as its target RAC-alpha serine/threonine-protein kinase (Homo sapiens) (UniProt P31749). As to the kind of experiment: AKT1 kinase inhibition by PKD hits, dose response, selectivity assay for PKD inhibitor project, biochemical, 57K library, IC50 (AID 1378).

Chain of RAC-alpha serine/threonine-protein kinase (Homo sapiens) (P31749 whole entry, looked up): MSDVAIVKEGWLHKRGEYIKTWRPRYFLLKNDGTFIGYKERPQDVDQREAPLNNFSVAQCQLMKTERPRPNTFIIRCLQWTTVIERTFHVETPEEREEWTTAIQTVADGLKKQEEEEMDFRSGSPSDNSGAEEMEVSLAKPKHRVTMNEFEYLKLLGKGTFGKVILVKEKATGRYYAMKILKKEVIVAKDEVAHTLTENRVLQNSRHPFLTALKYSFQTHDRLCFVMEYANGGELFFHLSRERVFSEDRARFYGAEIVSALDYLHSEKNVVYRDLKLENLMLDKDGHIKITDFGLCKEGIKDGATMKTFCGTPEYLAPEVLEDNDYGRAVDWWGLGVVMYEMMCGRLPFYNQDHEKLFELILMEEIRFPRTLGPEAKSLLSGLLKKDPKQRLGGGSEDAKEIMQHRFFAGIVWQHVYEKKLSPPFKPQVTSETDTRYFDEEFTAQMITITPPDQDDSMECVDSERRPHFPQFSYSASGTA

By IC50 is commonly meant the concentration at which inhibition is half-maximal. For the compound `C/C(=N\Nc1ncc(Cl)cc1Cl)c1ccccn1`, the IC50 is > 100 µM (inactive).
